Experimental data from patent publication US6667278B2, “Non-steroidal mimetics of brassinolide” (University Technologies International Inc., priority 2000, dated 2003).

Key:
[1] = system: dwarf rice Oryza satina var. Tan-ginbozu; assay: rice leaf lamina inclination bioassay; type: in vivo
Description: Mimetics 3-12, along with brassinolide for comparison, were subjected to the rice leaf lamina inclination bioassay^30. This technique is a rapid, highly sensitive and convenient means for detecting and measuring brassinosteroid bioactivity. Strongly active brassinosteroids such as brassinolide can be readily detected at doses as low as 1 ng/plant. The assay is based on the downward movement response of the second leaf lamina angle of rice seedlings to the application of active brassinosteroids. Thus, a decrease in the leaf angle occurs from about 160 degrees (i.e. nearly upright) in control plants to angles of less than 90 degrees when a strong response is measured. A plot of leaf lamina angle vs. the logarithm of the dose in ng provides a convenient indication of bioactivity.
Brassinosteroids show synergy with auxins such as indole-3-acetic acid (IAA) in this bioassay^7,30,31. Thus, co-application of a given dose of the brassinosteroid with IAA generally elicits a similar decrease in the leaf lamina angle as would be observed with a dose one or two orders of magnitude higher of the brassinosteroid alone. […] The bioassays of mimetics 3-12 were therefore run both in the presence and absence of 1000 ng of added IAA and mimetic 11 was also bioassayed in the presence of 5000 ng of IAA.
Mimetics 3-12, along with brassinolide as a standard, were tested for biological activity by means of the rice leaf lamina assay, using a dwarf rice Oryza satina var. Tan-ginbozu, as described^30. The compounds were dissolved in 95% ethanol, except for mimetic 11 where DMSO was used due to poor solubility in ethanol. To a solution of mimetic 11 in 50 microliters of DMSO was added 550 microliters of a 2.5% aqueous solution of Atlas®, an ICI formulating material, to improve uptake. The test solutions were then applied as 0.5 μl microdrops to the rice plants 48 h after planting the germinated seeds on 0.8% water agar. At high doses, several rounds of application of the 0.5 μl microdrops were required to attain the desired dose per plant. Where IAA was a co-treatment, 1,000 or 5,000 ng of IAA was similarly applied per plant ca. 2 h prior to the application of brassinolide and mimetics 3-12. The resultant leaf lamina angle was measured 60-65 h later. For an individual bioassay, each data point is the mean of the leaf angles from ca. 36 plants for doses up to 100 ng and from ca. 24 plants for the 1000 and 10,000 ng doses. Parallel control applications of solvent and IAA (1000 ng) were also carried out. […] Similarly, the results for brassinolide plus IAA, which were reported earlier,^14,16,17a are not shown here for purposes of clarity.

solubility in ethanol = type: physicochemical
rice, beans and others = conditions: applied exogenously; cited from earlier work
[2] = system: dwarf rice Oryza satina var. Tan-ginbozu; conditions: in vivo; cited from earlier work
[3] = applied together with IAA in 95% ethanol
[4] = all dosage levels, with or without IAA application

For `Oc1ccc(C=Cc2ccc(O)c3c2CC(O)C(O)C3)c2c1CC(O)C(O)C2` (mixture of isomers) [Mimetic 6, (E)-(±)-1,2-Bis[4,6α,7α-trihydroxy-5,6,7,8-tetrahydronaphthyl]ethene and its Meso Isomer], the “bioactivity in the rice leaf lamina inclination assay” value (“bioactivity” for short) [1, 3] was “significant bioactivity” and the “dose that produced a significant bioassay response” value [1, 3] was 10000 ng.

In the case of `O=C1CC=C(C#CC2=CCC(=O)C3CC(O)C(O)CC23)C2CC(O)C(O)CC12` (mixture of isomers) [Mimetic 10, (±)-1,2-Bis[trans-(4aα,8aβ)-4-oxo-6α,7α-dihydroxy-4a,5,6,7,8,8a-hexahydro-(3H)-naphthyl]ethyne and its Meso Isomer], the “bioactivity” value [1, 4] is reported as “devoid of activity”.

For `O=C1CC=C(C=CC2=CCC(=O)C3CC(O)C(O)CC23)C2CC(O)C(O)CC12` (mixture of isomers) [Mimetic 11, (E)-1,2-Bis[trans-(4aα,8aβ)-4-oxo-6α,7α-dihydroxy-4a,5,6,7,8,8a-hexahydro-(3H)-naphthyl]ethene and its Meso Isomer], the “bioactivity” value ([1]; IAA increased to 5000 ng, DMSO diluted with 2.5% aqueous Atlas, compared with 1000 ng IAA) was “even further enhanced”, the “bioactivity” value ([1]; applied together with 1000 ng of IAA, DMSO diluted with 2.5% aqueous Atlas) was “active across a wide range of doses” and the “dose at which significant activity is displayed” value ([1]; with 5000 ng of IAA, DMSO/Atlas) was 0.01 ng. The solubility in ethanol (solubility in ethanol) was “poor”.

In the case of `Oc1cc(C#Cc2ccc3c(c2)CC(O)C(O)C3)cc2c1CC(O)C(O)C2` (racemic) [Mimetic 4, (±)-1-[4,6α,7α-Trihydroxy-5,6,7,8-tetrahydronaphthyl]-2-[6α′,7α∝-dihydroxy-5′,6′,7′,8′-tetrahydronaphthyl]ethyne as Two (±) Pairs], the “bioactivity” value [1, 3] is reported as “modest, but statistically significant activity”.

For `Oc1ccc(C#Cc2ccc(O)c3c2CC(O)C(O)C3)c2c1CC(O)C(O)C2` (single isomer, unassigned) [Mimetic 3, (±)-1,2-Bis[4,6α,7α-trihydroxy-5,6,7,8-tetrahydronaphthyl]ethyne and its Meso Isomer], the “bioactivity” value [1, 3] was “modest, but statistically significant activity” and the “dose that produced a significant bioassay response” value [1, 3] was 10,000 ng.

For `OC1Cc2ccc(C#Cc3ccc4c(c3)CC(O)C(O)C4)cc2CC1O` (single isomer, unassigned) [Mimetic 5, (±)-1,2-Bis[6α,7α-dihydroxy-5,6,7,8-tetrahydronaphthyl]ethyne and its Meso Isomer], the “bioactivity” value [1, 4] was “completely inactive”.

With `OC1Cc2ccc(/C=C/c3ccc4c(c3)CC(O)C(O)C4)cc2CC1O` (single isomer, unassigned) [Mimetic 7, (E)-(±)-1,2-Bis[6α,7α-dihydroxy-5,6,7,8-tetrahydronaphthyl]ethene and its Meso Isomer] the “bioactivity” value [1, 4] was “completely inactive”.

For `Oc1ccc(CCc2ccc(O)c3c2CC(O)C(O)C3)c2c1CC(O)C(O)C2` (single isomer, unassigned) [Mimetic 8, (±)-1,2-Bis[4,6α,7α-trihydroxy-5,6,7,8-tetrahydronaphthyl]ethane and its Meso Isomer], the “bioactivity” value [1, 4] was “no bioactivity”.

In the case of `O=C1CCC(=NN=C2CCC(=O)C3CC(O)C(O)CC23)C2CC(O)C(O)CC12` (single isomer, unassigned) [Mimetic 12, 6,7-Dihydroxy-2,3,4a,5,6,7,8,8a-octahydro-4-oxo-naphthalenone Azine (Mixture of Isomers)], the “bioactivity” value [1, 4] is reported as “devoid of activity”.

In the case of `O=C(O)Cc1c[nH]c2ccccc12` [IAA, indole-3-acetic acid, reference compound], the “effect in the bioassay” value ([1]; applied on its own) is reported as “without significant effect”.

For `Oc1cc2c(O)ccc(CCc3ccc(O)c4cc(O)c(O)cc34)c2cc1O` [Mimetic 9, 1,2-Bis(4,6,7-trihydroxynaphthyl)ethane], the “bioactivity” value [1, 4] was “no bioactivity”.

For `CC(C)[C@H](C)[C@@H](O)[C@H](O)[C@@H](C)[C@H]1CC[C@H]2[C@@H]3COC(=O)[C@H]4C[C@H](O)[C@H](O)C[C@]4(C)[C@H]3CC[C@]12C` [brassinolide, (22R, 23R, 24S)-2α,3α,22,23-tetrahydroxy-24-methyl-B-homo-7-oxa-5α-cholestan-6-one], the “dose as low as which biological activity is manifested” value (rice, beans and others) is given as “one” and the “dose as low as which readily detected” value [2] is given as 1 ng/plant.
